In patent US9833425B2, “Gentisic acid is used to improve systemic hemodynamics, hepatic mitochondrial function and lactate acidemia in patients with septic shock” (priority 2015, dated 2017):
Entries after “also recorded” stand apart in the source; their conditions may differ. Read-outs that look alike come from different tables or passages of the source. Marks after values point to notes of the source that are not given here.

How the values were obtained:
[1] = test system: canine model of septic shock (Pseudomonas aeruginosa); conditions: for effect of treatment on heart rate (HR): 3 hrs and 5 hrs posttreatment vs other septic groups; for ALT (alanine transaminase) / AST (aspartate transaminase) / Arterial pH / CK (creatine kinase) / Oxygen delivery / Cardiac output / LD (lactate dehydrogenase) / Lactate / Mean arterial pressure / Pulmonary wedge pressure / Stroke work index / Troponin / Heart Rates: mean ± SD; for effect of treatment on mean arterial pressure (MAP): infusion started at septic shock condition, 3 hr and 5 hr post treatment; for effect of treatment on blood lactate concentration: over the course of the study; for Systemic vascular resistance: mean (SD in the cell below)
Method: We used a bacteremic model of Pseudomonas aeruginosa in this study as previously described (20). We used this particular model, since we wanted to measure mitochondrial function and LA under conditions of an acute and intensive inflammatory response analogous to that which would occur in a severe bout of SS in the clinical condition. […] Over the course of the experiment, we studied the animals (18 to 26 kg) while anesthetized with sufentanil citrate (0.05-0.3 ug/kg/min) and midazolam (5 ug/kg/min), and while being ventilated receiving 100% oxygen to maintain arterial around PO2 ˜400 mmHg. We adjusted the ventilator rate over the course of the study to attenuate the development of the metabolic acidosis that is usually observed (20).
To assess hemodynamics in this model, we inserted vascular catheters under sterile conditions as previously described (20), after which we connected the catheters to pressure transducers (Cobe, Argon) that were referenced relative to the left atrium and connected to a chart recorder (Astro-Med, W Warwick, R.I.). To measure MAP, we inserted a polyethylene catheter into the right femoral artery, while to measure pulmonary vascular pressures, we inserted a Swanz-Ganz catheter (Edwards Lifesciences, Irvine, Calif.) by percutaneous techniques through the right jugular vein. From the Swanz-Ganz catheter, we obtained measurements of pulmonary arterial pressure (Ppa), wedge pressure (Pwp), and right atrial pressure (Rap), as well as determinations of thermodilution cardiac output (CO).
From the hemodynamic measurements, we calculated SV from CO/heart rates (HR), stroke work (SW) from [SV*(MAP−Pwp)], and systemic vascular resistance (SVR) from [(MAP-Rap)/CO)*80]. We also normalized measurements of SV, SW, and CO and organ oxygen delivery (DO2) to body weight. We calculated DO2 from CO×Hb×1.34 ml oxygen per gram of Hb, since Hb was 100% saturated at a PO2 of ˜400 mmHg. From the arterial catheter and distal port of the Swanz-Ganz catheter, we also took arterial and mixed venous blood samples, respectively, for analyses of PO2, PCO2, and pH.
In addition, we placed another polyethylene catheter into the left jugular vein, also by percutaneous techniques, for infusion of the bacteria and intravenous fluids and for obtaining blood chemistry and hematological samples. Since the baseline Pwp found in this model usually averages≈8-10 mmHg, we infused normal saline solution as necessary to maintain Pwp relatively constant over the duration of this study. […] The Clinical Chemistry Laboratory at the Health Sciences Centre performed the clinical laboratory tests.
We included 5 groups of animals in the initial phase of this study. These groups included a septic control group, a non-septic control group, a norepinephrine (NE) septic group, a gentisic acid sodium salt (GSS) septic group, and a GSS non-septic group. In each group, we made baseline measurements of hemodynamics and blood parameters after approximately 1 hr period of stability. In the septic groups, after initiation of the bacterial infusion, we repeated the measurements in the septic shock condition. […] In the septic control group, after the SS condition, we started an infusion of 5% dextrose in water (D5W) at approximately 40 ml/hr for the remainder of the study, since D5W was the diluent for both the NE and GSS treatments.
In all groups, we then made posttreatment measurements at 3 hrs and 5 hrs after completion of the septic shock/sham-shock determinations.
In this supplemental study, we examined the effect of gallic acid on hemodynamics and mitochondrial function in our Pseudomonas aeruginosa model in a manner identical to that described for GSS treatment.

[2] = test system: mitochondrial complex IV (cytochrome c oxidase); experiment: Enzymatic activity of hepatic mitochondrial complex IV; format: biochemical, dog; conditions: hepatic mitochondria of treated septic dogs; mean ± SD
Description: As part of our assessment of mitochondrial function, we also measured the enzymatic activity of hepatic mitochondrial complex IV based on the rationale of Levy et al (10), since these investigators considered that dysfunction of complex IV was the most important determinant of abnormal mitochondrial function in SS. We determined complex IV activity spectrophotometrically by a temperature-controlled Ultrospec™ 2100 ultraviolet-visible spectrophotometer (Biopharmacia Biotech, Uppsala, Sweden) (17). Complex IV activity was measured at 25° C. by monitoring the absorbance decrease of reduced cytochrome c at 550 nm.

[3] = pH in unbuffered solution; format: physicochemical
[4] = septic dogs, listed as gentisic, sodium salt
[5] = septic dogs, 3 hrs posttreatment
[6] = septic dogs, 5 hrs posttreatment
[7] = septic dogs, baseline (before bacteria/treatment)
[8] = septic dogs, septic shock (before treatment)
[9] = septic dogs, septic shock condition (before treatment)

Compound: O=C([O-])c1cc(O)ccc1O.[Na+] [GSS, 2,5-dihydroxybenzoic acid sodium salt]
- time of infusion until systemic blood pressure reached the baseline value ([1]; one dog of the gentisic septic group (FIG. 4)): approximately 20 minutes
- arterial pH at the end of the study, compared among groups ([1]; septic dogs): higher
- effect of treatment on stroke work index ([1]; septic dogs, 3 hr and 5 hr vs septic control group, did not reach statistical significance): an increase in stroke work index
- effect of treatment on heart rate (HR) [1, 4]: significant decrease in HR
- effect of treatment on heart rate (HR) ([1]; septic dogs, sodium salt): heart rates were lower
- effect of treatment on systemic vascular resistance (SVR) ([1]; septic dogs, 3 hrs and 5 hrs posttreatment vs septic shock condition, sodium salt): increased SVR back to the baseline value; also recorded: an increase in SVR
- ALT (alanine transaminase) [1, 5]: 209 ± 158*^+! IU
- AST (aspartate transaminase) [1, 5]: 235 ± 167*^+$ IU
- Arterial pH [1, 5]: 7.24 ± .08*^+$^
- CK (creatine kinase) [1, 5]: 1847 ± 1763^! IU
- Oxygen delivery [1, 5]: 20 ± 7 mL/min/kg
- ALT (alanine transaminase) [1, 6]: 225 ± 171*^+ IU
- AST (aspartate transaminase) [1, 6]: 279 ± 208*^+!$ IU
- Arterial pH [1, 6]: 7.20 ± 0.06*^+#$^
- CK (creatine kinase) [1, 6]: 2857 ± 2527*^!^ IU
- Oxygen delivery [1, 6]: 20 ± 19 mL/min/kg
- ALT (alanine transaminase) [1, 7]: 51 ± 29 IU
- AST (aspartate transaminase) [1, 7]: 29 ± 31 IU
- Arterial pH [1, 7]: 7.38 ± .03
- CK (creatine kinase) [1, 7]: 117 ± 106 IU
- Oxygen delivery [1, 7]: 18 ± 3 mL/min/kg
- effect of treatment on mean arterial pressure (MAP) ([1]; septic dogs, sodium salt): increased MAP back to the baseline value; also recorded: return in MAP to baseline
- effect of treatment on blood lactate concentration [1, 4]: did not increase and even tended to decrease slightly
- effect of treatment on blood lactate concentration ([1]; septic dogs, sodium salt): did not change
- ALT (alanine transaminase) [1, 8]: 161 ± 132 IU
- AST (aspartate transaminase) [1, 8]: 143 ± 113 IU
- Arterial pH [1, 8]: 7.26
- CK (creatine kinase) [1, 8]: 521 ± 750 IU
- Oxygen delivery [1, 9]: 26 ± 6 mL/min/kg
- enzymatic activity of mitochondrial complex IV [2]: 3.68±0.59 umol/min/mg protein
- pH in unbuffered solution [3]: 8.2

Compound: O=C(O)c1cc(O)c(O)c(O)c1 [gallic acid, 3,4,5 trihydroxybenzoic acid]
- Systemic vascular resistance ([1]; septic dogs, 3 hrs post treatment): 1673 dynes S/cm^5
- ALT (alanine transaminase) [1, 5]: 187 ± 68*^+! IU
- AST (aspartate transaminase) [1, 5]: 324 ± 104*^+$ IU
- Arterial pH [1, 5]: 7.17 ± .10*^+@$
- CK (creatine kinase) [1, 5]: 3832 ± 3896*^+ IU
- Cardiac output [1, 5]: 120 ± 400 mL/min/kg
- LD (lactate dehydrogenase) [1, 5]: 415 ± 192*^+#@$^ IU
- Lactate [1, 5]: .8 ± .4^#! nunol/L
- Mean arterial pressure [1, 5]: 71 ± 10^*%@!$ mmHg
- Oxygen delivery [1, 5]: 26 ± 7 mL/min/kg
- Pulmonary wedge pressure [1, 5]: 11.6 ± 2.6^+ mmHg
- Stroke work index [1, 5]: 62 ± 28*^+ ml mmHg/Kg
- Troponin [1, 5]: 41 ± 92 ng/L
- Systemic vascular resistance ([1]; septic dogs, 5 hrs post treatment): 1478 dynes S/cm^5
- ALT (alanine transaminase) [1, 6]: 189 ± 66*^+#! IU
- AST (aspartate transaminase) [1, 6]: 363 ± 89*^+$ IU
- Arterial pH [1, 6]: 7.12
- CK (creatine kinase) [1, 6]: 5065 IU
- Cardiac output [1, 6]: 130 ± 40 mL/min/kg
- LD (lactate dehydrogenase) [1, 6]: 513 IU
- Lactate [1, 6]: .75 ± .35^#! nunol/L
- Mean arterial pressure [1, 6]: 60 ± 5*^%@!$ mmHg
- Oxygen delivery [1, 6]: 22 ± 3 mL/min/kg
- Pulmonary wedge pressure [1, 6]: 11.3 ± 2.1^+ mmHg
- Stroke work index [1, 6]: 49 ± 20*^+ ml mmHg/Kg
- Troponin [1, 6]: 69 ± 157* ng/L
- Systemic vascular resistance [1, 7]: 3566 dynes S/cm^5
- ALT (alanine transaminase) [1, 7]: 33 ± 16 IU
- AST (aspartate transaminase) [1, 7]: 19 ± 3 IU
- Arterial pH [1, 7]: 7.40 ± .05
- CK (creatine kinase) [1, 7]: 104 ± 35 IU
- Cardiac output [1, 7]: 113 ± 20 mL/min/kg
- Heart Rates [1, 7]: 49 ± 3
- LD (lactate dehydrogenase) [1, 7]: 36 ± 10 IU
- Mean arterial pressure [1, 7]: 105 ± 14 mmHg
- Oxygen delivery [1, 7]: 21 ± 6 mL/min/kg
- Pulmonary wedge pressure [1, 7]: 11.3 ± 2.3 mmHg
- Stroke work index [1, 7]: 212 ± 43 ml mmHg/Kg
- Troponin ([1]; septic dogs, baseline (before bacteria/treatment), index of myocardial injury): 0 ± 3 ng/L
- effect of treatment on mean arterial pressure (MAP) ([1]; septic dogs): did not produce an increase in MAP
- effect of treatment on blood lactate concentration ([1]; septic dogs): reduction in lactate at 3 hrs and 5 hrs posttreatment
- ALT (alanine transaminase) [1, 8]: 157 ± 61 IU
- AST (aspartate transaminase) [1, 8]: 241 ± 104*^+$ IU
- Arterial pH [1, 8]: 7.25 ± .10*^+$
- CK (creatine kinase) [1, 8]: 2650 ± 3339 IU
- LD (lactate dehydrogenase) [1, 8]: 200 ± 98*^+$ IU
- Systemic vascular resistance [1, 9]: 1257 dynes S/cm^5
- Cardiac output [1, 9]: 150 ± 40 mL/min/kg
- Heart Rates [1, 9]: 125 ± 28*^+
- Mean arterial pressure [1, 9]: 64 ± 12*^+ mmHg
- Oxygen delivery [1, 9]: 25 ± 6 mL/min/kg
- Pulmonary wedge pressure [1, 9]: 10.4 ± 2.7^+ mmHg
- Stroke work index [1, 9]: 72 ± 32*^+ ml mmHg/Kg
- Troponin [1, 9]: 14 ± 15 ng/L
- enzymatic activity of mitochondrial complex IV [2]: 2.44±0.63 umol/min/mg protein
- pH in unbuffered solution [3]: 4.2
